# Results published in ChEMBL document CHEMBL1153835, “Targeting the calcineurin pathway enhances ergosterol biosynthesis inhibitors against Trichophyton mentagrophytes in vitro and in a human skin infection model” (Antimicrob Agents Chemother, 2007).
# Calls of active or inactive are those of the source. The rule behind the calls is not given here.
# How the values were obtained:
# [1] = system: Trichophyton mentagrophytes; assay: Antifungal activity against Trichophyton mentagrophytes DUMC112.02 by CLSI protocol; type: functional
# [2] = system: Trichophyton mentagrophytes; assay: Antifungal activity against Trichophyton mentagrophytes DUMC160.03 by CLSI protocol; type: functional
# [3] = system: Trichophyton mentagrophytes; assay: Antifungal activity against Trichophyton mentagrophytes DUMC160.03 infected in human skin at 2 fold MIC administered 30 mins post infection followed by once in every 2 days for 7 days by scanning electron microscopy relative to control; type: functional, organism-based
# Zone of skin = assay: Toxicity to human skin assessed as damage of skin integrity at 2 fold MIC administered 30 mins post inoculation followed by once in every 2 days for 7 days by scanning electron microscopy; type: tissue-based
SMILES,MIC [1],MIC80 [1],MIC [2],MIC80 [2],Activity [3],Activity (Zone of skin)
C/C=C/C[C@@H](C)[C@@H](O)[C@H]1C(=O)N[C@@H](CC)C(=O)N(C)CC(=O)N(C)[C@@H](CC(C)C)C(=O)N[C@@H](C(C)C)C(=O)N(C)[C@@H](CC(C)C)C(=O)N[C@@H](C)C(=O)N[C@H](C)C(=O)N(C)[C@@H](CC(C)C)C(=O)N(C)[C@@H](CC(C)C)C(=O)N(C)[C@@H](C(C)C)C(=O)N1C [CYCLOSPORINE],2 µg/mL,2 µg/mL,1 µg/mL,8 µg/mL,–,–
OC(Cn1cncn1)(Cn1cncn1)c1ccc(F)cc1F [FLUCONAZOLE],8 µg/mL,16 µg/mL,8 µg/mL,16 µg/mL,Active,Non-toxic
C=CC[C@@H]1/C=C(\C)C[C@H](C)C[C@H](OC)[C@H]2O[C@@](O)(C(=O)C(=O)N3CCCC[C@H]3C(=O)O[C@H](/C(C)=C/[C@@H]3CC[C@@H](O)[C@H](OC)C3)[C@H](C)[C@@H](O)CC1=O)[C@H](C)C[C@@H]2OC [TACROLIMUS ANHYDROUS],1 µg/mL,1 µg/mL,1 µg/mL,1 µg/mL,inactive,Non-toxic
CN(C/C=C/C#CC(C)(C)C)Cc1cccc2ccccc12 [TERBINAFINE],0.004 µg/mL,–,0.0312 µg/mL,–,Active,Non-toxic
